Calls of active or inactive are those of the source. The rule behind the calls is not given here.

Here are results for 59 molecules from PubChem BioAssay AID2141 (Sanford-Burnham Center for Chemical Genomics, 2009).

In the assay the target is E3 ubiquitin-protein ligase SIAH1 (Homo sapiens) (UniProt Q8IUQ4). The assay is described as follows: Siah-1 binding antagonists, dose response, biochemical, TR-FRET (AID 2141). The settings on record: TR-FRET biochemical assay. For orientation: In TR-FRET formats the signal depends on donor and acceptor labels being close together.

As usually defined, the IC50 is the concentration needed to halve the response being measured. On to `Cc1ccc(NC(=O)CCC(=O)NNC(=O)c2ccccc2[N+](=O)[O-])c(C)c1`, for which the IC50 was > 200 µM (inactive).

As to `Cc1ccccc1-c1nc2c3ccccc3nc(=S)n2[nH]1`, the IC50 was > 200 µM (inactive).

As to `O=C(O)c1cc(Cl)c(Cl)cc1C(=O)Nc1cccc2cccnc12`, the IC50 is 7.1 µM.

For the molecule `CC(=O)c1ccc(NC(=O)CC2Nc3cccc4cccc(c34)NC2=O)cc1` (centres undefined), the 50% inhibitory concentration (IC50) is 8.51 µM.

In the case of `O=C(NCc1ccc(Cl)cc1)c1cc(-c2cccs2)on1`, the IC50 is 6.3 µM. For the molecule `O=S(=O)(Nc1nc2ccccc2nc1Nc1ccc(N2CCOCC2)cc1)c1cc(Cl)ccc1Cl`, the IC50 was > 200 µM (inactive).

As to `c1ccc(C(c2ccccc2)N2CCN(C(c3ccccn3)c3nnnn3C3CCCC3)CC2)cc1` (centres undefined), the IC50 was > 200 µM (inactive). Consider `C[N+]1(CCNC(=O)/C=N/O)CCCCC1`, for which the IC50 entry was “inactive”.

`CCCCNc1nnc(Cc2ccc(Cl)cc2)c(=O)[nH]1`: the IC50 entry was “inactive”. Next, `CC1CCCCC1NC(=O)CCS(=O)(=O)c1ccc2c(c1)NC(=O)CO2` (centres undefined): > 200 µM (inactive). For `O=C(Nc1ccccc1N1CCCCC1)c1ccc(-c2cccc(Cl)c2)o1`, the IC50 was > 200 µM (inactive). For `Cc1ccc(S(=O)(=O)N2CCC(=O)N(C(COCc3cccc(C)c3)Cc3ccccc3)CC2)cc1` (centres undefined), the IC50 was > 200 µM (inactive). On to `C[C@]12CCC3C(CC=C4C[C@@H](O)CC[C@@]43C)C1CCC2[C@]1(C)CCC(=O)O1` (some centres undefined), for which the IC50 was > 200 µM (inactive). With `CCOc1ccccc1CNc1ccc(O)cc1`, the IC50 was 5.11 µM.

For the molecule `CCOC(=O)c1c(C)[nH]c2c1-c1ccccc1C(=O)C2=O`, the IC50 is > 200 µM (inactive). `O=C(O)CCCNc1cc(N2CCN(C(=O)c3ccco3)CC2)c2noc3c2c1C(=O)c1ccccc1-3`: the half-maximal inhibitory concentration (IC50) is 5.41 µM. With `COc1ccc(N=C2NC(=O)S/C2=C\c2ccc(N(C)C)cc2)cc1`, the IC50 is > 200 µM (inactive).

For the molecule `Nc1c(C(=O)NCc2ccco2)c2nc3ccccc3nc2n1Cc1ccccc1`, the IC50 is less than 1.56 µM.

Turning to `CCN(CC)CCOC(=O)c1ccc(N/C=C(/C#N)c2nc(-c3ccc(OC)c(OC)c3)cs2)cc1`, the IC50 is less than 1.56 µM.

In the case of `Cc1ccc(C(=O)NC2CC3CCCC(C2)N3C(=O)NC2CCCCC2)cc1` (centres undefined), the IC50 is > 200 µM (inactive).

`CC(C)COc1ccc(-c2nn(-c3ccccc3)cc2/C=C2/SC(=S)N(CC(=O)O)C2=O)cc1`: the half-maximal inhibitory concentration (IC50) is 3.91 µM. Next, `CCC1=Nc2cc(C(=O)O)ccc2Sc2ccccc21`: “inactive”; `COC(=O)c1c(C(=O)OC)c2cccc3cc(-c4ccccc4)c4ccc1c4n32`: 14.6 µM; `O=C(Nc1ccc(Br)cc1)c1ccc(N2C(=O)C3CC=CCC3C2=O)cc1` (centres undefined): 4.27 µM. Take `O=C(O)c1ccc(/C=N/NC(=O)c2ccc(CN3c4cccc5cccc(c45)S3(=O)=O)cc2)cc1`: the IC50 is 18.3 µM.

As for `COCCCNc1c2c3c(cccc3[nH]c1=O)C(=O)c1ccccc1-2`, the IC50 is > 200 µM (inactive). Take `Cc1cc(C)n2ncc(C(=O)Nc3ccc4c(c3)OCO4)c2n1`: the IC50 entry was “inactive”. Next, `COc1ccc(CCNC(=O)c2ccc(S(=O)(=O)N(C)c3ccccc3)cc2)cc1OC`: > 200 µM (inactive).

As for `Cc1ccc(OCCCN2CCOCC2)cc1`, the IC50 was > 200 µM (inactive). For the molecule `CSc1n[nH]c(NCc2ccc(Cl)cc2)n1`, the IC50 is > 200 µM (inactive). Next, `CCOC(=O)C1=C(C)N=c2s/c(=C\c3ccc(OCC(=O)O)cc3)c(=O)n2C1c1ccc(Cl)cc1` (centres undefined): > 200 µM (inactive). As to `O=C(Cn1cnc2scc(-c3ccccc3)c2c1=O)NCc1ccco1`, the 50% inhibitory concentration (IC50) was 7.29 µM. For `O=C(CC1Nc2cccc3cccc(c23)NC1=O)Nc1ccccc1` (centres undefined), the IC50 is 6.36 µM. For `O=S(=O)(O)c1cc(O)c2c(O)c(N=Nc3cc(Cl)ccc3O)c(S(=O)(=O)O)cc2c1`, the IC50 was 2.14 µM. Consider `CCN(CC)c1ccc(/C=c2\sc3nnc(-c4ccccc4Cl)n3c2=O)cc1`, for which the IC50 was > 200 µM (inactive). As to `COC(=O)C1CC(=O)N(c2ccc(OCc3ccccc3Cl)cc2)C1` (centres undefined), the IC50 was > 200 µM (inactive). As for `CCCCn1c(NS(=O)(=O)c2ccccc2)c(S(=O)(=O)c2ccc(C)cc2)c2nc3ccccc3nc21`, the IC50 is 1.6 µM. As for `CN1C(=O)NC(c2ccccc2[N+](=O)[O-])C2=C1CCCC2=O` (centres undefined), the IC50 is > 200 µM (inactive). For the molecule `CC1CCN(S(=O)(=O)c2ccc3c(c2)c(=O)c(C(=O)NCc2ccccc2Cl)cn3C)CC1`, the IC50 was > 200 µM (inactive). On to `O=c1[nH]c(-c2ccc(F)cc2)nc2c1sc(=S)n2-c1ccccc1`, for which the IC50 was > 200 µM (inactive).

For `COc1cc(NS(=O)(=O)c2ccc(NC(=S)NC(=O)/C=C/c3ccc(F)cc3)cc2)ncn1`, the IC50 is > 200 µM (inactive). Consider `O=C(NCc1c(F)cccc1F)c1cc(COc2c(F)cccc2F)on1`, for which the IC50 was > 200 µM (inactive). As for `CCCCn1c(NC(=O)c2ccco2)c(S(=O)(=O)c2ccc(C)cc2)c2nc3ccccc3nc21`, the IC50 was > 200 µM (inactive). Next, `CC(=O)c1ccc(S(=O)(=O)Nc2ccc(-c3ccc4nnc(C)n4n3)cc2)cc1`: 9.93 µM. As to `Cc1ccc(-n2cccn2)c([C@@H]2C[C@H]3CN(C)C(=O)[C@]34CCCN24)c1`, the IC50 was > 200 µM (inactive). Then `COc1cc(/C=C(\C#N)c2nc3ccccc3[nH]2)ccc1OC(=O)c1ccco1`, with 6.22 µM; and `CC(NC(=O)Nc1ccc(O)cc1)(C(F)(F)F)C(F)(F)F`, with “inactive”; and `Cc1cc(C)c(C#N)c(Nc2ccccc2C)n1`, with > 200 µM (inactive). Next, `Cc1ccc2c(c1)N(CC(=O)NCCc1ccc(Cl)cc1)C(=O)c1cccnc1O2`: > 200 µM (inactive). In the case of `CC[n+]1c(/C=C/N(C)c2ccccc2)sc2ccc(Cl)cc21`, the IC50 was > 200 µM (inactive). Next, `COc1ccc(C(C(=O)NCc2ccccc2)N(Cc2ccco2)C(=O)c2cnccn2)cc1` (centres undefined): > 200 µM (inactive); `O=C(CSc1ccc(Br)c2cccc(Cl)c12)Nc1ccc(S(=O)(=O)Nc2nccs2)cc1`: > 200 µM (inactive).

Take `CCN(CC)c1ccc(C=N/C(C#N)=C(\N)C#N)cc1`: the IC50 is > 200 µM (inactive). For `COc1ccc(CCNC(=O)CCC(=O)N2CCOc3ccc(C)cc32)cc1OC`, the IC50 is > 200 µM (inactive).

For the molecule `COCCCn1c(N)c(C(=O)NCc2ccco2)c2nc3ccccc3nc21`, the half-inhibitory concentration (IC50) is 2.31 µM. Then `Oc1ccc(N=Cc2sc3ccccc3c2Cl)cc1`, with 14.9 µM; and `CC1=CC(C)(C)N2C(=O)C(=Nc3ccc(O)cc3)c3cccc1c32`, with 5.61 µM; and `CC1=C(C#N)c2nc(N)c(C#N)c(C)c2/C1=C\c1ccc(-c2ccccc2C(=O)O)o1`, with > 200 µM (inactive). With `COCCn1nnnc1C(c1cc2ccc(OC)cc2[nH]c1=O)N1CCc2ccccc2C1` (centres undefined), the IC50 was 11.8 µM.
